Assay results taken from US10093630B2, “Pyrazole compounds and methods of making and using same” (ABIDE THERAPEUTICS, INC., priority 2014, dated 2018).
Read-outs that look alike come from different tables or passages of the source.

Experiments:
Test in all cases: In vitro competitive activity-based protein profiling (gel-based, FP-Rh or HT-01 probe)
Type in all cases: biochemical
PLA2G7 = molecular target: T1, PLA2G7 (Mus musculus, UniProt Q60963); details: for inhibition at 1 µM: 1 μM inhibitor, read-out: % Inhibition at 1 μM, D = PLA2G7; for IC50: mouse brain membrane fraction or cell lysates, 30 min preincubation at 37° C.; for inhibition at 10 µM: 10 μM inhibitor, read-out: % Inhibition at 10 μM, D = PLA2G7
T1 construct: Proteomes (mouse brain membrane fraction or cell lysates); from tissue; host or cells: mouse brain membrane fraction (or cell lysates, not specified)
T1 sequence (Q60963 22-440): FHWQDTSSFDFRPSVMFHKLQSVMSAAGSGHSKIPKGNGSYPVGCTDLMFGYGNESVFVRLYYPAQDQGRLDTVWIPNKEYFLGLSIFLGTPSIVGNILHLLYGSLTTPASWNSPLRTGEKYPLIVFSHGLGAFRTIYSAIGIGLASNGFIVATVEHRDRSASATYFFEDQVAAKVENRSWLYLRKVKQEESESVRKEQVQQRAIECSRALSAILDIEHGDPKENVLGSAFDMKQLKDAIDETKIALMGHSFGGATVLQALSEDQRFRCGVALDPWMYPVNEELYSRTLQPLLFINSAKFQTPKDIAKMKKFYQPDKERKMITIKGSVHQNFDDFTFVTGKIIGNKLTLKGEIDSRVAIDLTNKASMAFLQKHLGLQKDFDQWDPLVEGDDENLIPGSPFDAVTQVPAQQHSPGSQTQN
Procedure: (§1) In Vitro Competitive Activity-Based Protein Profiling.
(§2) Proteomes (mouse brain membrane fraction or cell lysates) (50 μL, 1.0 mg/mL total protein concentration) were preincubated with varying concentrations of inhibitors at 37° C. After 30 min, FP-Rh or HT-01 ([…], 50 μM in DMSO) was added and the mixture was incubated for another 30 min at 37° C. Reactions were quenched with SDS loading buffer (15 μL—4×) and run on SDS-PAGE. Following gel imaging, serine hydrolase activity was determined by measuring fluorescent intensity of gel bands corresponding to MAGL, ABHD6, FAAH, and PLA2G7 using ImageJ 1.43u software.

FAAH = molecular target: T2, FAAH (Mus musculus, UniProt O08914); details: for inhibition at 1 µM: 1 μM inhibitor, read-out: % Inhibition at 1 μM, B = FAAH; for IC50: mouse brain membrane fraction or cell lysates, 30 min preincubation at 37° C., read-out: Mouse (IC50 value, nM) FAAH; for inhibition at 10 µM: 10 μM inhibitor, read-out: % Inhibition at 10 μM, B = FAAH
T2 construct: Proteomes (mouse brain membrane fraction or cell lysates); from tissue; host or cells: mouse brain membrane fraction (or cell lysates, not specified)
T2 sequence (O08914 1-579): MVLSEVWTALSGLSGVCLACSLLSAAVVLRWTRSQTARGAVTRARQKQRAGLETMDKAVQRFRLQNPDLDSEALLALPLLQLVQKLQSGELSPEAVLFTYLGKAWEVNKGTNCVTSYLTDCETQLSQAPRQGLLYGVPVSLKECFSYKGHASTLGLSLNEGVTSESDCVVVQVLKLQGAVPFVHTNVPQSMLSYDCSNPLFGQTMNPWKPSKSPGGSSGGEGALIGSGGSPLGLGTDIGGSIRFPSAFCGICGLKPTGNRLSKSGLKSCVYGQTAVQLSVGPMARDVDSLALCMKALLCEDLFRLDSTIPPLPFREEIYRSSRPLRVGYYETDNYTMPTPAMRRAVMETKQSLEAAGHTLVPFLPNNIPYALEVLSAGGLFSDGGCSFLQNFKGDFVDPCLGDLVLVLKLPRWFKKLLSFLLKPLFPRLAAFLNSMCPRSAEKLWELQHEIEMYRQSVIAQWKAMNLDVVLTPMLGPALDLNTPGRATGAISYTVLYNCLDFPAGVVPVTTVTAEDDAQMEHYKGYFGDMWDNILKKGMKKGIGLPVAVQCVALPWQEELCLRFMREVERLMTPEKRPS
Procedure: as §1, §2

ABHD6 = molecular target: T3, ABHD6 (Mus musculus, UniProt Q8R2Y0); details: for inhibition at 1 µM: 1 μM inhibitor, read-out: % Inhibition at 1 μM, C = ABHD6; for IC50: mouse brain membrane fraction or cell lysates, 30 min preincubation at 37° C., read-out: Mouse (IC50 value, nM) ABHD6; for inhibition at 10 µM: 10 μM inhibitor, read-out: % Inhibition at 10 μM, C = ABHD6
T3 construct: Proteomes (mouse brain membrane fraction or cell lysates); from tissue; host or cells: mouse brain membrane fraction (or cell lysates, not specified)
T3 sequence (Q8R2Y0 1-336): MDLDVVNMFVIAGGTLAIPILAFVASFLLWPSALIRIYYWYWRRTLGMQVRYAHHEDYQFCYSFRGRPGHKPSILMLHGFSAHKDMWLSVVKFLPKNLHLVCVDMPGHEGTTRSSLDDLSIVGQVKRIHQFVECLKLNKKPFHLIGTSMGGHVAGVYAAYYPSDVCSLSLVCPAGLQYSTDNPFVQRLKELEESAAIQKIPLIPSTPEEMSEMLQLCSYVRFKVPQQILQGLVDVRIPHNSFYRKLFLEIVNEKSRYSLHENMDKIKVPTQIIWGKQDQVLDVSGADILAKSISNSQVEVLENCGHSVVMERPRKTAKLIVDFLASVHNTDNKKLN
Procedure: as §1, §2

MAGL = molecular target: T4, MAGL (Mus musculus, UniProt O35678); details: for inhibition at 1 µM: 1 μM inhibitor; for IC50: mouse brain membrane fraction or cell lysates, 30 min preincubation at 37° C., read-out: Mouse (IC50 value, nM) MAGL; for inhibition at 10 µM: 10 μM inhibitor
T4 construct: Proteomes (mouse brain membrane fraction or cell lysates); from tissue; host or cells: mouse brain membrane fraction (or cell lysates, not specified)
T4 sequence (O35678 1-303): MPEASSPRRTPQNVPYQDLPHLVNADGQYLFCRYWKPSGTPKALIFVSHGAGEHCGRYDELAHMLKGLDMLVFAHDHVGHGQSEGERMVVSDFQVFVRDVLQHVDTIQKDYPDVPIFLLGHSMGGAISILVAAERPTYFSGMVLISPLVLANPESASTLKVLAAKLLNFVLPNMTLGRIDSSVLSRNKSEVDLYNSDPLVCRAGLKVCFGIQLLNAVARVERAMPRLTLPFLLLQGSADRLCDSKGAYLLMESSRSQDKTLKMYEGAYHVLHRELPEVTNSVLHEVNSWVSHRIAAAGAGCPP
Procedure: as §1, §2

SMILES | inhibition at 1 µM (PLA2G7; gel-based competitive ABPP) [%] | IC50 (PLA2G7) [nM] | inhibition at 1 µM (FAAH; gel-based competitive ABPP) [%] | IC50 (FAAH) [nM] | inhibition at 1 µM (ABHD6; gel-based competitive ABPP) [%] | IC50 (ABHD6) [nM] | inhibition at 1 µM (MAGL; gel-based competitive ABPP) [%] | IC50 (MAGL) [nM] | inhibition at 1 µM (PLA2G7) [%] | inhibition at 1 µM (FAAH) [%] | inhibition at 1 µM (ABHD6) [%] | inhibition at 1 µM (MAGL) [%] | inhibition at 10 µM (PLA2G7) [%] | inhibition at 10 µM (FAAH) [%] | inhibition at 10 µM (ABHD6) [%] | inhibition at 10 µM (MAGL) [%] | inhibition at 10 µM (PLA2G7; gel-based competitive ABPP) [%] | inhibition at 10 µM (FAAH; gel-based competitive ABPP) [%] | inhibition at 10 µM (ABHD6; gel-based competitive ABPP) [%] | inhibition at 10 µM (MAGL; gel-based competitive ABPP) [%]
O=C(N1CCN(Cc2cccc(N3CCCC3)c2)CC1)n1cc(C(F)(F)F)cn1 [Example 273, (4-(3-(Pyrrolidin-1-yl)benzyl)piperazin-1-yl)(4-(trifluoromethyl)-1H-pyrazol-1-yl)methanone] | > 75 | < 100 | > 75 | < 100 | > 75 | < 100 | > 75 | < 100 | – | – | – | – | – | – | – | – | – | – | – | –
Cc1cnn(C(=O)N2CCN(Cc3cccc(OCc4ccccc4)c3)CC2)c1 [Example 297, (4-(3-(Benzyloxy)benzyl)piperazin-1-yl)(4-methyl-1H-pyrazol-1-yl)methanone] | < 25 | – | > 75 | – | > 75 | – | > 75 | – | – | – | – | – | – | – | – | – | – | – | – | –
CCN(Cc1cccc(Cl)c1)C(=O)n1cc(C#N)cn1 [Example 243, N-(3-chlorobenzyl)-4-cyano-N-ethyl-1H-pyrazole-1-carboxamide] | – | > 1000 | – | < 100 | – | > 1000 | – | 100 to 1000 | < 25 | > 75 | > 75 | > 75 | – | – | – | – | – | – | – | –
O=C(c1cnn(C(=O)N2CCN(Cc3cccnc3)CC2)c1)N1CCCCC1 [Example 71, Piperidin-1-yl(1-(4-(pyridin-3-ylmethyl)piperazine-1-carbonyl)-1H-pyrazol-4-yl)methanone] | – | – | – | – | – | – | – | – | > 75 | < 25 | 25 to 75 | < 25 | > 75 | 25 to 75 | > 75 | < 25 | – | – | – | –
N#Cc1cnn(C(=O)N2CCCN(C(=O)c3ccccc3)CC2)c1 [Example 180, 1-(4-Benzoyl-1,4-diazepane-1-carbonyl)-1H-pyrazole-4-carbonitrile] | – | > 1000 | – | 100 to 1000 | – | > 1000 | – | 100 to 1000 | < 25 | > 75 | > 75 | > 75 | > 75 | > 75 | > 75 | > 75 | – | – | – | –
Cc1cc(N2CCOCC2)ccc1CN1CCN(C(=O)n2cc(Cl)cn2)CC1 [Example 218, (4-Chloro-1H-pyrazol-1-yl)(4-(2-methyl-4-morpholinobenzyl)piperazin-1-yl)methanone] | – | 100 to 1000 | – | 100 to 1000 | – | 100 to 1000 | – | < 100 | > 75 | > 75 | > 75 | > 75 | – | – | – | – | – | – | – | –
N#Cc1cnn(C(=O)N2CCN(Cc3ccc(C(=O)N4CCCCC4)cc3Cl)CC2)c1 [Example 282, 1-(4-(2-Chloro-4-(piperidine-1-carbonyl)benzyl)piperazine-1-carbonyl)-1H-pyrazole-4-carbonitrile] | > 75 | – | > 75 | – | > 75 | – | > 75 | – | – | – | – | – | – | – | – | – | > 75 | > 75 | > 75 | > 75
O=C(N1CCN(Cc2ccncc2)CC1)n1cc(-c2ccccc2)cn1 [Example 59, (4-Phenyl-1H-pyrazol-1-yl)(4-(pyridin-4-ylmethyl)piperazin-1-yl)methanone] | – | – | – | – | – | 100 to 1000 | – | – | > 75 | – | > 75 | – | > 75 | > 75 | > 75 | 25 to 75 | – | – | – | –
CCN(Cc1ccc(N2CCOCC2)cc1)C(=O)n1cc(Cl)cn1 [Example 267, 4-Chloro-N-ethyl-N-(4-morpholinobenzyl)-1H-pyrazole-1-carboxamide] | < 25 | – | 25 to 75 | – | < 25 | – | 25 to 75 | – | – | – | – | – | – | – | – | – | – | – | – | –
O=C(O)c1cnn(C(=O)N2CCN(Cc3ccc(Cl)cc3)CC2)c1 [Example 288, 1-(4-(4-Chlorobenzyl)piperazine-1-carbonyl)-1H-pyrazole-4-carboxylic acid] | < 25 | – | 25 to 75 | – | < 25 | – | < 25 | – | – | – | – | – | – | – | – | – | < 25 | > 75 | < 25 | < 25
CCN(Cc1cccc(OC)c1)C(=O)n1cc(C#N)cn1 [Example 249, 4-Cyano-N-ethyl-N-(3-methoxybenzyl)-1H-pyrazole-1-carboxamide] | < 25 | – | > 75 | < 100 | < 25 | > 1000 | > 75 | 100 to 1000 | – | – | – | – | – | – | – | – | 25 to 75 | > 75 | > 75 | > 75
CN(CCN(C)C(=O)n1cc(C#N)cn1)C(=O)c1ccccc1 [Example 182, 4-Cyano-N-methyl-N-(2-(N-methylbenzamido)ethyl)-1H-pyrazole-1-carboxamide] | – | – | – | – | – | – | – | – | < 25 | > 75 | < 25 | < 25 | > 75 | > 75 | > 75 | > 75 | – | – | – | –
N#Cc1cnn(C(=O)N2CCCN(Cc3ccc(OCc4ccccc4)cc3)CC2)c1 [Example 303, 1-(4-(4-(Benzyloxy)benzyl)-1,4-diazepane-1-carbonyl)-1H-pyrazole-4-carbonitrile] | < 25 | – | > 75 | – | < 25 | – | > 75 | – | – | – | – | – | – | – | – | – | – | – | – | –
O=C(NCCCCc1ccccc1)n1cccn1 [Example 34, N-(4-Phenylbutyl)-1H-pyrazole-1-carboxamide] | – | – | – | – | – | – | – | – | – | – | – | – | < 25 | < 25 | < 25 | < 25 | – | – | – | –
